pIC50: −log10 of the molar value. Like-named read-outs stand apart in the source and are kept apart here.

The target of assay [1] is T1, HCV RdRp (NS5B RNA-dependent RNA polymerase) (Hepatitis C virus genotype 1b, UniProt P26663).
T1 construct: The HCV NS5B protein is the viral RdRp; made in house; host or cells: insect cells infected with recombinant baculovirus
Kind of assay: Inhibition of hepatitis C virus RdRp (poly(A)/oligo(U), [3H]UTP incorporation). The conditions noted are these: for IC50: Tables I-VIII, 20 nM NS5B, 1 hour at 22° C., read-out: IC 50 (μM), HCV-polymerase; for pIC50: Tables IXa-IXc, unit inferred, read-out: HCV (IC50). The assay is classed as biochemical. A digest of the protocol:
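Baculovirus-expressed recombinant NS5B (20 nM) polymerised on poly(A) template (10 μg/ml) with oligo(U)12 primer, 10 μM UTP plus [3H]UTP, pH 7.5 Tris buffer with 5 mM MgCl2, 1 h at 22 °C. Acid-insoluble radioactivity counted on filters; IC50 fitted from residual activity with slope term.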

The target in assay [2] is T2, reverse transcriptase of HIV (HIV-1 RT) (Human immunodeficiency virus type 1 group M subtype B, UniProt P03366).
T2 construct: the reverse transcriptase of HIV (HIV -1RT) from Boehringer Mannhium; purchased Boehringer Mannheim (printed 'Boehringer Mannhium')
Kind of assay: Inhibition of HIV-1 reverse transcriptase ([3H]dTTP incorporation). The assay is classed as biochemical, Human Immunodeficiency Virus-1. The conditions noted are these: Tables IXa-IXc; unit inferred; NA=not active as an inhibitor. The method, then: Test for Inhibition of Human Immunodeficiency Virus-1 Reverse Transcriptase
Analogous assays employed the reverse transcriptase of HIV (HIV -1RT) from Boehringer Mannhium.
Incorporation of radioactive dTTP was measured as follows. The standard reaction (100 μl) was carried out in a buffer containing 50 mM tris/HCl pH 8.2, 2.5 mM MgCl 2, 1 mM DTT, 80 mM KCl, 5 mM EGTA, 0.05% Triton X-100, 1 μCi[3H] dTTP (40 Ci/mmol, NEN), 10 μM […] and 10 μg/ml poly(A)/dT (from Pharmacia).

T1 sequence (P26663 2420-3010): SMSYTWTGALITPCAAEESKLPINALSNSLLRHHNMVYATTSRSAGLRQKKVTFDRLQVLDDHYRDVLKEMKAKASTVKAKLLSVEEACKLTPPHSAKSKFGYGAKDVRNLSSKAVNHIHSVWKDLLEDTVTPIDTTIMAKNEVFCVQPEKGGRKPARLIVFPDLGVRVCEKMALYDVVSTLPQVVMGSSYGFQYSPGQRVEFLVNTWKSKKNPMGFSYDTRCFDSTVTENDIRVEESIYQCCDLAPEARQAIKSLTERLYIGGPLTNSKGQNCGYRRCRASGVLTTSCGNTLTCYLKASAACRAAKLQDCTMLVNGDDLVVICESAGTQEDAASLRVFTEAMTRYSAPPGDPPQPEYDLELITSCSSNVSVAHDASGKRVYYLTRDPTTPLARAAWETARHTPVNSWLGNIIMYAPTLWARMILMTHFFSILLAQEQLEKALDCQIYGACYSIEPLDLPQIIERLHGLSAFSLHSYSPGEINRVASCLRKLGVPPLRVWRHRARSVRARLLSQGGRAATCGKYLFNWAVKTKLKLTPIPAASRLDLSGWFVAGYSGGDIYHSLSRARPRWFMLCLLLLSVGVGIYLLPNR

The pIC50 is the IC50 on a negative log10 scale, so that one unit is a factor of ten. As to `C=CCOc1ccccc1C(=O)C=C(O)C(=O)O` [Example 16], in assay [1], the IC50 is 4.3 µM and the pIC50 was 5.37. The pIC50 in assay [2] was < 4.00.

As to `O=C(O)C(O)=CC(=O)c1cccc(NS(=O)(=O)c2c(Cl)cccc2Cl)c1` [Example 120], in assay [1], the IC50 was determined as 0.36 µM and the pIC50 was 6.44. In assay [2], this molecule gave a pIC50 of 4.10.

Turning to `O=C(O)C(=O)Nc1cccc(C(=O)C=C(O)C(=O)O)c1` [Example 24], in assay [1], the IC50 is 19 µM and the pIC50 is 4.72. The molecule also gave a negative logarithm of the IC50 (pIC50) in assay [2] of 4.15.

Turning to `N#CCCCOc1ccc(O)cc1C(=O)C=C(O)C(=O)O` [Example 53], in assay [1], the IC50 amounted to 0.115 µM and the pIC50 was 6.94. In assay [2], the negative logarithm of the IC50 (pIC50) was 4.43.

For `N#CCCCOc1ccc(Cl)cc1C(=O)C=C(O)C(=O)O` [Example 36], in assay [1], the IC50 was found to be 1.6 µM and the negative logarithm of the IC50 (pIC50) was 5.80. The same molecule had a pIC50 in assay [2] of 4.62.

For `Cc1cccc(C(=O)C=C(O)C(=O)O)c1` [Example 19], in assay [1], the IC50 is 11.9 µM and the pIC50 is 4.92. Moreover, the pIC50 in assay [2] was 4.11.

Take `O=C(O)C(O)=CC(=O)c1cccc(NS(=O)(=O)c2cccc3ccccc23)c1` [Example 78]: in assay [1], the IC50 amounted to 0.67 µM and the pIC50 was 6.17. In addition, the pIC50 in assay [2] is 4.46.

As to `O=C(O)C(O)=CC(=O)c1ccc(-c2ccc(F)c(Cl)c2)o1` [Example 218], in assay [1], the IC50 was determined as 41.2 µM. For the same molecule, the pIC50 was 4.39 in assay [1] and 4.93 in assay [2].

Regarding `O=C(O)C(O)=CC(=O)c1cc(O)cc(OCc2ccccc2)c1` [Example 155], in assay [1], the IC50 was 1.4 µM and the pIC50 is 5.85. For the same molecule, in assay [2], the pIC50 was 3.89.

Consider `Cc1ccc(C(=O)C=C(O)C(=O)O)cc1` [Example 161], for which, in assay [1], the IC50 was 2.8 µM and the pIC50 is 5.55. The molecule also showed a pIC50 in assay [2] of 3.49.

Turning to `COc1cc(C)c(C#N)c(COc2cccc(C(=O)C=C(O)C(=O)O)c2)c1` [Example 111], in assay [1], the IC50 worked out at 0.12 µM. The pIC50 in assay [1] was 6.92; in assay [2], 4.10.

Regarding `O=C(O)C(O)=CC(=O)c1cccc(OCCc2ccccc2)c1` [Example 18], the IC50 in assay [1] turned out to be 2.2 µM. Moreover, the figures for the pIC50 in assay [1] and in assay [2] were 5.66 and 4.52, respectively.

`O=C(O)C(O)=CC(=O)c1cccc(OCc2ccccc2)c1` [Example 4]: in assay [1], the IC50 stood at 8 µM and the pIC50 is 5.10. Besides, the negative logarithm of the IC50 (pIC50) in assay [2] is < 4.00.

In the case of `O=C(O)C(O)=CC(=O)c1cccc(OCc2c(F)cccc2F)c1` [Example 7], in assay [1], the IC50 was found to be 2.92 µM and the pIC50 is 5.48. Further, the negative-log IC50 (pIC50) in assay [2] is 4.21.

`N#Cc1ccc(Br)cc1COc1cccc(C(=O)C=C(O)C(=O)O)c1` [Example 113]: in assay [1], the IC50 was found to be 0.1 µM and the negative-log IC50 (pIC50) is 7.00. Besides, in assay [2], the pIC50 is 4.05.

Consider `N#Cc1ccccc1OCc1cccc(C(=O)C=C(O)C(=O)O)c1` [Example 112], for which, in assay [1], the IC50 was determined as 1.33 µM and the negative logarithm of the IC50 (pIC50) is 5.88. The negative-log IC50 (pIC50) in assay [2] is 4.05.

For the molecule `O=C(O)C(O)=CC(=O)c1cccc(O)c1` [Example 23], in assay [1], the IC50 is 0.94 µM and the pIC50 was 6.00. In assay [2], this molecule gave a pIC50 of 4.23.

`O=C(O)C(O)=CC(=O)c1ccc(-c2cc(Cl)cc(Cl)c2)o1` [Example 258]: the negative logarithm of the IC50 (pIC50) in assay [1] is < 4.00; in assay [2], 5.44.

As for `O=C(O)C(O)=CC(=O)c1ccccc1OCc1ccccc1` [Example 8], in assay [1], the IC50 is 44 µM and the pIC50 was 4.36. In assay [2], the negative logarithm of the IC50 (pIC50) was 4.72.

Turning to `O=C(O)C(O)=CC(=O)C12CC3CC(CC(C3)C1)C2` [Example 243], the IC50 in assay [1] came out at 6.7 µM. Moreover, the pIC50 in assay [1] is 5.17; in assay [2] it was 4.57.

In the case of `O=C(O)C(O)=CC(=O)c1ccccc1` [Example 1], in assay [1], the IC50 turned out to be 5.6 µM and the negative logarithm of the IC50 (pIC50) is 5.25. In assay [2], the pIC50 is 4.05.

With `Cc1ccc(OCCCC#N)c(C(=O)C=C(O)C(=O)O)c1` [Example 21], in assay [1], the IC50 is 0.955 µM and the negative logarithm of the IC50 (pIC50) is 6.00. In assay [2], the pIC50 is < 4.30.

Turning to `O=C(O)C(O)=CC(=O)c1cccc(NS(=O)(=O)c2cc(Cl)cc(Cl)c2)c1` [Example 117], in assay [1], the IC50 stood at 0.14 µM and the pIC50 is 6.85. In addition, in assay [2], the pIC50 was 4.00.

As to `O=C(O)CCCOc1ccccc1C(=O)C=C(O)C(=O)O` [Example 27], in assay [1], the IC50 turned out to be 2.84 µM and the pIC50 is 5.52. Moreover, the negative-log IC50 (pIC50) in assay [2] is < 4.30.

Consider `N#Cc1c(Cl)cc(Cl)cc1COc1cccc(C(=O)C=C(O)C(=O)O)c1` [Example 126], for which, in assay [1], the IC50 turned out to be 0.056 µM and the negative-log IC50 (pIC50) was 7.25. This molecule also had a negative-log IC50 (pIC50) in assay [2] of 4.00.

As for `O=C(O)C(O)=CC(=O)c1ccccc1Cc1ccc(F)cc1` [Example 40], the IC50 in assay [1] is 8.3 µM. The pIC50 in assay [1] was 5.08; in assay [2] it was 4.92.

On to `O=C(O)C(O)=CC(=O)C1(c2ccccc2)CCN(S(=O)(=O)c2cccc3cccnc23)CC1` [Example 248], for which, in assay [1], the IC50 is 10 µM.

Take `Cc1cc(C)c(C(=O)C=C(O)C(=O)O)s1` [Example 192]: in assay [1], the IC50 came to 8.2 µM and the pIC50 is 5.09.

Take `O=C(O)C(O)=CC(=O)c1cccc(NS(=O)(=O)c2ccccc2Br)c1` [Example 77]: the IC50 in assay [1] was found to be 4.8 µM.

Take `Nc1cccc(C(=O)C=C(O)C(=O)O)c1` [Example 62]: the IC50 in assay [1] amounted to 10 µM.

Regarding `Cc1ccc(C(=O)CC(=O)C(=O)O)o1` [Example 217], in assay [1], the IC50 was determined as 58 µM.

For the molecule `N#Cc1cccc(COc2ccccc2C(=O)C=C(O)C(=O)O)c1` [Example 26], in assay [1], the IC50 turned out to be 26 µM.

With `Cc1cccc(C(C)Oc2cccc(C(=O)C=C(O)C(=O)O)c2)c1C#N` (centres unmarked) [Example 122], the IC50 in assay [1] turned out to be 2 µM.

For the molecule `O=C(O)C(O)=CC(=O)c1ccc(Cl)s1` [Example 193], the IC50 in assay [1] was determined as 12 µM.

Take `O=C(Nc1ccccc1)Nc1cccc(C(=O)C=C(O)C(=O)O)c1` [Example 80]: in assay [1], the IC50 is 3 µM and the negative-log IC50 (pIC50) was 5.52.

In the case of `N#CCCCOc1ccc(C#CCCCCl)cc1C(=O)C=C(O)C(=O)O` [Example 56], the IC50 in assay [1] was determined as 23.6 µM.

`O=C(O)C(O)=CC(=O)c1ccc(O)cc1` [Example 162]: in assay [1], the IC50 came to 5.5 µM and the negative logarithm of the IC50 (pIC50) was 5.26.

As for `O=C(O)C(O)=CC(=O)c1cccc(NS(=O)(=O)c2cc(Cl)ccc2Cl)c1` [Example 88], in assay [1], the IC50 was 0.7 µM and the pIC50 is 6.15.

Take `O=C(O)C(O)=CC(=O)c1cccc(Cc2ccc(F)cc2)c1` [Example 46]: the IC50 in assay [1] was determined as 30.1 µM.

Consider `O=C(O)C(O)=CC(=O)c1cc2c(s1)-c1ccccc1CC2` [Example 204], for which, in assay [1], the IC50 came to 11 µM.

`CCCOc1ccccc1C(=O)C=C(O)C(=O)O` [Example 29]: the IC50 in assay [1] came to 3.9 µM.

For `O=C(O)C(O)=CC(=O)c1ccccc1N(Cc1ccccc1)Cc1ccccc1` [Example 42], the IC50 in assay [1] was found to be 16.6 µM.

`Cc1csc2sc(C(=O)C=C(O)C(=O)O)c(C)c12` [Example 201]: in assay [1], the IC50 is 20 µM.

Take `O=C(O)C(O)=CC(=O)c1cccc(Cn2nnc3ccccc32)c1` [Example 154]: the IC50 in assay [1] turned out to be 30 µM.

`O=C(O)C(O)=CC(=O)c1sccc1Cc1cccc(F)c1` [Example 207]: the IC50 in assay [1] turned out to be 9.9 µM.

As to `O=C(O)C(O)=CC(=O)c1ccc(N2CCCC2)s1` [Example 195], the IC50 in assay [1] stood at 11.1 µM.

Values taken from patent publication US7022736B2, “Enzyme inhibitors” (Istituto Di Ricerche Di Biologia Molecolare P Angeletti SpA, priority 1998, dated 2006).
